# In patent publication US4921860A, “Quinuclidyl- and tropanyl-pyridyl ethers as 5-HT3 receptor antagonists” (John Wyeth and Brother, Limited, priority 1987, dated 1990):
# Tests used:
# 5-HT3 receptors [1] = molecular target: T1, 5-HT3 receptors (Rattus norvegicus, UniProt P35563); assay: 5-HT3 receptor antagonism in the isolated vagus nerve of the rat (5-HT induced depolarisation); type: cell-based; settings: isolated rat cervical vagus nerve; estimated from 5-HT concentration ratios; read-out: apparent pKB (KB is the antagonist dissociation constant) (converted)
# T1 construct: tested for 5-HT3 receptor antagonism in the isolated vagus nerve of the rat; from tissue; host or cells: isolated cervical vagus nerve of the rat
# T1 sequence (P35563 24-483): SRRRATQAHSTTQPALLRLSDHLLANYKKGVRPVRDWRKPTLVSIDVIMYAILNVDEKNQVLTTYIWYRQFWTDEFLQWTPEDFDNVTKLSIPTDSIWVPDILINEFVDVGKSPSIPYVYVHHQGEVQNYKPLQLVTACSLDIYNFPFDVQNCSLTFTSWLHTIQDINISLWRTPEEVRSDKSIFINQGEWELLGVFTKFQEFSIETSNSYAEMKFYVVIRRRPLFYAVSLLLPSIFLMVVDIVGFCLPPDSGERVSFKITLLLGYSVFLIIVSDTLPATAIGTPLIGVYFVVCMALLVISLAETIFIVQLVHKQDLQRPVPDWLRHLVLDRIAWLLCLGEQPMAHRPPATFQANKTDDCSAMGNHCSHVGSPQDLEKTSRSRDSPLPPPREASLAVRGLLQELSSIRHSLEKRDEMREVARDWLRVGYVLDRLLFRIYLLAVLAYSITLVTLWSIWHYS
# Procedure: The pyridyl ethers are tested for 5-HT3 receptor antagonism in the isolated vagus nerve of the rat by a method based upon that of Ireland S. J. and Tyers M. B. Brit. J. Phamacol., 1987, 90, 229-238. The procedure relies upon the ability of 5-HT to induce depolaraisation of neurones in the cervical vagus nerve by a direct action of 5-HT3 receptors. A concentration response curve to 5-HT induced depolaraisation is obtained and the antagonists are added to the bath containing the isolated nerve before repeating the 5-HT concentration-response curve. Antagonist potency is estimated from the 5-HT concentration ratios and expressed as an apparent pKB value (where KB is the antagonist dissociation constant).
# 5-HT3 receptors [2] = molecular target: T2, 5-HT3 receptors (Oryctolagus cuniculus, UniProt A0A5F9C9J3); assay: 5-HT3 antagonistic activity in the isolated right atrium of the rabbit heart; type: cell-based; settings: 5-HT evoked increase in spontaneous rate, read-out: apparent PKB (converted)
# T2 construct: 5-HT3 antagonistic activity in the isolated right atrium of the rabbit heart; from tissue; host or cells: isolated right atrium of the rabbit heart (sympathetic nerve terminals)
# T2 sequence (A0A5F9C9J3 1-494): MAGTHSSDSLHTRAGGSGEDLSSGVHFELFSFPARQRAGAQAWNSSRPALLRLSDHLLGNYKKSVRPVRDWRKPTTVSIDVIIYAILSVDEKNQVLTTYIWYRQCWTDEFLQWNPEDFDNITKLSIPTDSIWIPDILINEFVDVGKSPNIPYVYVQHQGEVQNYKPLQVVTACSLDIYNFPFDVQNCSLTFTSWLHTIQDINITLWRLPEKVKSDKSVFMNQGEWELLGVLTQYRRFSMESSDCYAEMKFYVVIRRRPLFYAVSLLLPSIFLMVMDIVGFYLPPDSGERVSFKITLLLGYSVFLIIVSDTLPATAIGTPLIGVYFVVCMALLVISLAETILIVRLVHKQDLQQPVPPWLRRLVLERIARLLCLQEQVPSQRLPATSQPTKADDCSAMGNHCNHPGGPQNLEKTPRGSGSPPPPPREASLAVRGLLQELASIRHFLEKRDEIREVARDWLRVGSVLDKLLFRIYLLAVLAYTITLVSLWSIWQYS
# Procedure: The compounds of the invention are also tested for 5-HT3 antagonistic activity in the isolated right atrium of the rabbit heart based upon the method of Fozard J. R., Naunyn-Schmiedeberg's Arch. Pharmacol., 1984, 326, 36-44. The procedures relies upon the ability of 5-HT to stimulate 5-HT3 receptors present on sympathetic nerve terminals in the heart, causing release of noradrenaline which evokes an increase in the spontaneous rate of […]. The antagonist potency is expressed in a similar manner to that of the preceding test method i.e. as an apparent PKB.
smiles,measurement,setting,value
"CN1[C@@H]2CC[C@H]1C[C@@H](Oc1ccccn1)C2 [Example 1, Endo 8 methyl-3-(2-pyridinyloxy)-8-azabicyclo[3.2.1]octane]",Kb,5-HT3 receptors [1],631 nM
same,Kd,5-HT3 receptors [2],39.8 nM
